Results from US4853407A, “Aminoethylcysteine derivatives” (Sanraku Incorporated, priority 1987, dated 1989).
pIC50: −log10 of the molar value.

Legend:
[1] = In vivo test on dipeptidase-inhibiting activity (recovery of co-administered antibiotic 88617 in urine); parameters: species or system ddY mice; settings: mouse, sc; control: antibiotic 88617 alone, 20 mg/kg subcutaneous; urine collected 6 hours; average of five mice; read-out: Recovery ratio of antibiotic 88617 in urine
Protocol: (§1) Five weeks aged ddY mice were grouped five mice for one group, and aqueous solutions containing 80 or 250 mg/ml concentration of the dipeptidase-inhibiting agent of this invention (adjusted with 1N NaOH to pH 7.5) were intravenously administered to the mice. A control group was administered with a same amount of pure water. 3 to 5 minutes after the administration, 0.25 ml of an antibiotic 88617 (M/100 PBS, pH 7.0 solutions) at 5 or 20 mg/kg-mouse were subcutaneously administered to the mice. Six hours after the administration of the antibiotic 88617, all the urines of the mice were collected and the concentrations of the antibiotic 88617 in all the collected urines were measured by disc-agar diffusion method in which Comamonas terrigena was used as test bacteria, and average values of five mice were determined.

[2] = molecular target: T1, dipeptidase (Rattus norvegicus, UniProt P31430); experiment: In vitro test on dipeptidase-inhibiting activity (antibiotic PS-5 as substrate, absorbance at 301 nm); format: biochemical; settings: partially purified dipeptidase from rat kidney; substrate antibiotic PS-5, pH 8.0, 37° C., 5 minutes; read-out: ID50 (the source's name)
T1 construct: to obtain a partially purified sample of dipeptidase; from tissue; host or cells: rat kidney, microsome fraction, trypsin-treated, Triton X-100 solubilised, partially purified
T1 sequence (P31430 17-410): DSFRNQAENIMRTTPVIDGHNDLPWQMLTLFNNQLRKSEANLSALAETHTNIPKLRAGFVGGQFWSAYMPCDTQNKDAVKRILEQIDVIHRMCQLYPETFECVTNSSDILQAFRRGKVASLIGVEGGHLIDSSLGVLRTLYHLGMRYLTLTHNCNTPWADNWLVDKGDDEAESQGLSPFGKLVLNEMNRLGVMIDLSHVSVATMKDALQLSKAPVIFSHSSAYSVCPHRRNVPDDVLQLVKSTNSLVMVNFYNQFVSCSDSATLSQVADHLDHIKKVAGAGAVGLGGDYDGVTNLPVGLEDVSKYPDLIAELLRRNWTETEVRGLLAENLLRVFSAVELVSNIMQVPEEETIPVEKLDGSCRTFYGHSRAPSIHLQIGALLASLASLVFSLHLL
Protocol: Rats were sacrificed by decapitation to bleed, and about 12 g of fresh kidneys were collected. And a microsome fraction was obtained by subcellular fractionating method according to fractional centrifugation of Hogboom (Methods in Enzymology, vol. 1, pages 16-19, Academic Press, New York, 1955). This microsome fraction was treated with 400 μg/ml of trypsin at 0° C. for 16 hours, and then subjected to fractional ultracentrifugation at 10^5 G at 0° C. for 60 minutes.
The resultant precipitate was solubilized by 20 ml of Tris-HCl buffer (20 mM, pH 7.6) containing a surfactant (0.4% Triton® X-100), and subjected to fractional ultracentrifugation at 10^5 G at 0° C. for 60 minutes. […]
The enzyme obtained above ([…]) was preincubated together with 30 μl of an inhibiting agent solution in a cuvette at 37° C. for 5 minutes. […] The reaction was carried out within a cuvette of HITACHI spectrophotometer equipped with a constant temperature device (37° C.), and decreases of absorbance at a wavelength of 301 nm for 5 minutes were determined by a recorder.
By the values obtained above and values from control containing no inhibiting agent, the percent inhibition and ID50 at a predetermined inhibition concentration were determined.

[3] = tested on: dipeptidase; experiment: In vivo test on dipeptidase-inhibiting activity (recovery of co-administered antibiotic 88617 in urine); parameters: species or system ddY mice; settings: 6 hours, average of five mice
Protocol: as §1

| SMILES | dose excreted at 6 h [1] [%] | pIC50 [2] | Recovery ratio of antibiotic 88617 in urine when dipeptidase-inhibiting agent was co-administered ([3]; inhibitor 50 mg/kg intravenous in combination with antibiotic 88617 20 mg/kg subcutaneous) [%] | Recovery ratio of antibiotic 88617 in urine when dipeptidase-inhibiting agent was co-administered ([3]; inhibitor 250 mg/kg intravenous in combination with antibiotic 88617 20 mg/kg subcutaneous) [%] |
| --- | --- | --- | --- | --- |
| CN=C(CSC1=C(C(=O)O)N2C(=O)C(C(C)F)C2C1)N(C)C (centres unmarked) [Antibiotic 88617, reference compound] | 27.5 | – | – | – |
| O=C(NCCSC[C@H](NC(=O)c1ccccc1)C(=O)O)c1ccccc1 [Compound No. 1, N-benzoyl-S-(2-benzoylaminoethyl)-L-cysteine] | – | 3.68 | 38.0 | 57.2 |
| O=C(O)[C@H](CSCCN1C(=O)c2ccccc2C1=O)N1C(=O)c2ccccc2C1=O [Compound No. 2, S-(2-phthalimidethyl)-N-phthaloyl-L-cysteine] | – | 3.32 | – | – |
